# Key:
# Assay type in all cases: cell-based
# LNCaP cells = assay: Antiproliferative activity on LNCaP in medium without steroids (WST-1); settings: 144 h, 1 nM to 100 μM
# Method: The anti-proliferative activity of the compounds of the present invention is determined on LNCaP in medium without steroids.
# The maintenance of the LNCaP line is carried out under the usual conditions in RPMI, 10% of foetal calf serum, 2 mM of glutamine, 100 U/ml of penicillin, 0.1 mg/ml of streptomycin and 0.01M HEPES, 1 mM sodium pyruvate, 40% of D-glucose.
# For the study under conditions without steroids, 24 hours before the seeding the culture medium of the cells is eliminated. The cells are washed with PBS, then incubated in the presence of RPMI medium without phenol red, 10% of foetal calf serum without steroids (treatment with carbon), 2 mM of glutamine, 100 U/ml of penicillin, 0.1 mg/ml of streptomycin and 0.01M HEPES, 1 mM of sodium pyruvate, 40% of D-glucose. • Seeding the plates:
# The LNCaP line is seeded at 20,000 cells/well in 90 μl of RPMI medium with 10% foetal calf serum without steroids in 96-well plates coated with poly-D-lysine (Biocoat, Costar). • Treatment of the cells: 24 h after seeding, the cells are treated with 10 μl/well of compound diluted in the culture medium. Experiments showing the dose-effect of the compound are carried out on a scale of 1 nM to 100 μM. The concentrations used are the following: 1 nM/10/30/100/300/1000/3000/10,000/100,000 nM. Testosterone (SIGMA T1500) is used as a reference and tested at the same concentrations. The cells are incubated for 144 h at 37° C., 5% CO2. • Reading: On D6, 10 μL of cell proliferation reagent WST-1 (Roche ref 1644807) is added to each well. After incubation for 2 to 4 hours at 37° C., 5% CO2, the absorbance at 450 nm is measured by spectrophotometry (Envision, Perkin Elmer). • Results: The experiments are carried out in duplicate and the best compounds are tested twice. […] 3. Antiproliferative Activity on DU-145 in Complete Medium: […]
# DU145 cells = assay: Antiproliferative activity on DU-145 in complete medium (WST-1); settings: Homo sapiens, 144 h incubation, read-out: IC50 on the DU145 cells in culture (concentration inhibiting cell proliferation by 50%)
# Method: The anti-proliferative activity of the compounds of the present invention is determined on DU-145 in complete medium.
# Maintenance of the DU-145 line is carried out in DMEM, 10% of foetal calf serum, 2 mM of glutamine, 100 U/ml of penicillin, 0.1 mg/ml of streptomycin. • Seeding the plates: • The DU145 line is seeded at 400 or 800 cells/well in 90 μl of DMEM complete medium in 96-well plates (TPP). • Treatment of the cells: 24 h after the seeding, the cells are treated with 10 μl/well of compound diluted in the culture medium. Experiments showing the dose-effect of the compound are carried out on a scale of 1 nM to 100 μM. The concentrations used are the following: 1 nM/10/30/100/300/1000/3000/10,000/100,000 nM. The cells are incubated for 144 h at 37° C., 5% CO2. • Reading: On D6, 10 μL, of cell proliferation reagent WST-1 (Roche ref 1644807) is added to each well. After incubation for 2 to 4 hours at 37° C., 5% CO2, the absorbance at 450 nm is measured by spectrophotometry (Envision, Perkin Elmer). • Results: The experiments are carried out in duplicate and the best compounds are tested twice. […] 4. Measurement of the Disappearance of the Androgen Receptor
# androgen receptor = target: T1, androgen receptor (Homo sapiens, UniProt P10275, T878A); assay: Measurement of the disappearance of the androgen receptor (Western blot, LNCaP cells); settings: 72 hours after treatment
# T1 construct: The LNCaP cell type (ATCC, 1740) originating from a prostate carcinoma expressing the androgen receptor; host or cells: LNCaP
# T1 sequence (P10275 1-920 T878A): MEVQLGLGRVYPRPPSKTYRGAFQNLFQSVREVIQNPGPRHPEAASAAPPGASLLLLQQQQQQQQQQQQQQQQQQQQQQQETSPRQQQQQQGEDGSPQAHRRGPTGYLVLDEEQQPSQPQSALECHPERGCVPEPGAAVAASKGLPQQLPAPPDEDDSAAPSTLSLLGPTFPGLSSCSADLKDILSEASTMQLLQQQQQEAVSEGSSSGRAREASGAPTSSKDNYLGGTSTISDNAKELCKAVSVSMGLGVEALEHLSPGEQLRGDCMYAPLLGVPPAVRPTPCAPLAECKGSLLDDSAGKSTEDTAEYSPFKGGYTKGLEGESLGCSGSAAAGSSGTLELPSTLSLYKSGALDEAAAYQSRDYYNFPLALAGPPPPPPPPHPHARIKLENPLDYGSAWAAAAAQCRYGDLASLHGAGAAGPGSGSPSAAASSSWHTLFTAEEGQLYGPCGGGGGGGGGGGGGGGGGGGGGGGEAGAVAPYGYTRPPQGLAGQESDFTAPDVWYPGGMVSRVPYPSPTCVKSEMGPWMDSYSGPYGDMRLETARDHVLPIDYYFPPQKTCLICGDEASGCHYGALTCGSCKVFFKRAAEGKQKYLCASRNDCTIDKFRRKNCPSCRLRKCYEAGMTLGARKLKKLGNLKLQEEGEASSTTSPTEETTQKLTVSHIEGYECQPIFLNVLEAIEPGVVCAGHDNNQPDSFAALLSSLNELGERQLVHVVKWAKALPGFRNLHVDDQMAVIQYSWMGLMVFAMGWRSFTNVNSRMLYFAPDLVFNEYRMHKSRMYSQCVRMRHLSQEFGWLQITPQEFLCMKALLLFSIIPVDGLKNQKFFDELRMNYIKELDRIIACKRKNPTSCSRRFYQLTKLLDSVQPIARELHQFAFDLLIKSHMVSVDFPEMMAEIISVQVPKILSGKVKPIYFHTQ
# Method: The cells of the LNCaP line are seeded at a rate of 2.5 millions of cells per 10 cm Petri dish in RPMI, 10% of foetal calf serum, 2 mM of glutamine, 100 U/ml of penicillin, 0.1 mg/ml of streptomycin and 0.01M HEPES, 1 mM of sodium pyruvate, 40% of D-glucose. 4 days later, the cells are treated with the compound to be tested. 72 hours after the treatment the cells are lyzed in lysis buffer (50 mM Tris pH 7.4, 150 mM NaCl, 1 mM EDTA, 20 mM NaF, 100 mM Na2VO3, 0.5% of NP40, 1% of Triton X-100, 1 mM EGTA, Pefabloc, protease inhibitor cocktail 11836170001 RocheDiagnostics, Phosphatase inhibitor cocktail set II Calbiochem). The cells are then scrapped and the lysate transferred into QIAshredder tubes (cat No. 79656 Qiagen) for centrifugation at 13,000 rpm for 15 min at 4° C. The supernatant is transferred into QIAshredder tubes for a second centrifugation at 13,000 rpm for 5 min in order to completely eliminate the DNA filaments. […] The loading buffer (sample loading buffer 3×ref 7722 Cell signaling technology) with added 1% beta-mercaptoethanol and 50 mM DTT, is added to the samples which are then heated for 10 min at 90° C. The samples are deposited under a volume of 20 μl on NuPAGE 4-12% Bis-Tris gels (cat No. NP0322BOX, Invitrogen). The migration takes place in MOPS buffer (Invitrogen) and is carried out for 1 hour at 180V. […]
SMILES,effect on the cell proliferation of LNCaP cultured in medium without steroids (FIG. 1) (LNCaP cells),IC50 (DU145 cells) [µM],effect on the protein expression of the androgen receptor (FIGS. 2-4) (androgen receptor)
"CC(=O)Nc1ccc(N2C(=O)N(CCCCCCCCC[S+]([O-])CCCC(F)(F)C(F)(F)F)C(C)(C)C2=O)cc1C(F)(F)F (centres unmarked) [Example 18, N-[4-(4,4-dimethyl-2,5-dioxo-3-{9-[(4,4,5,5,5-pentafluoropentyl)sulphinyl]-nonyl}imidazolidin-1-yl)-2-(trifluoromethyl)phenyl]acetamide]",anti-proliferative activity on the LNCaP cells without an agonist effect,> 10,reduction in the protein expression of the androgen receptor
"CN(C)CC(=O)Nc1ccc(N2C(=O)N(CCCCCCCCC[S+]([O-])CCCC(F)(F)C(F)(F)F)C(C)(C)C2=O)cc1C(F)(F)F (centres unmarked) [Example 43a, N-[4-(4,4-dimethyl-2,5-dioxo-3-{9-[(4,4,5,5,5-pentafluoropentyl)sulphinyl]nonyl}imidazolidin-1-yl)-2-(trifluoromethyl)phenyl]-N^2,N^2-dimethylglycinamide]",anti-proliferative activity on the LNCaP cells without an agonist effect,–,reduction in the protein expression of the androgen receptor

# — patent US8710091B2, “Imidazolidine-2,4-dione derivatives, and use thereof as a cancer drug” (Ipsen Pharma S.A.S., priority 2009, dated 2014)
